Measurements from patent publication US10111874B2, “Combination therapies for treatment of cancer” (Araxes Pharma LLC, priority 2014, dated 2018).

Target: T1, KRAS G12C 1-169, his-tagged protein, GDP-loaded (Homo sapiens, UniProt P01116, G12C)
T1 construct: KRAS G12C 1-169, his-tagged protein, GDP-loaded
Assay: Biochemical assay: covalent binding to KRAS G12C analyzed by mass spectrometry; further: test concentration or dose not given here
Conditions: compounds 1-47, measured at 24 h

T1 sequence (P01116 1-169 isoform P01116-2 G12C): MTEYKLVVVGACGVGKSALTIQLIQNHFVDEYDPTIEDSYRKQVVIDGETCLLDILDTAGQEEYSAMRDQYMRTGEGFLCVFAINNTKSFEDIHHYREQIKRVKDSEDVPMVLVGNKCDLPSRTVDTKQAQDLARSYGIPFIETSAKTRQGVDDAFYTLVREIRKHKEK

SMILES | Binding %
C=CC(=O)N1CCN(c2ncnc3cc(Cl)c(-c4ccc(O)cc4)cc23)CC1 [Compound I-12, 1-(4-(7-chloro-6-(4-hydroxyphenyl)quinazolin-4-yl)piperazin-1-yl)prop-2-en-1-one] | + (+indicates binding activity from 5% to 25%)
C=CC(=O)N1CCN(c2ncnc3cc(Cl)c(-c4cccs4)cc23)CC1 [Compound I-21, 1-(4-(7-chloro-6-(thiophen-2-yl)quinazolin-4-yl)piperazin-1-yl)prop-2-en-1-one] | +++ (+++indicates binding activity greater than 50% and up to 75%)
C=CC(=O)N1CC(Nc2ncnc3cc(Cl)c(-c4ccccc4Cl)cc23)C1 [Compound I-30, 1-(3-(7-chloro-6-(2-chlorophenyl)quinazolin-4-ylamino)azetidin-1-yl)prop-2-en-1-one] | + (+indicates binding activity from 5% to 25%)
C=CC(=O)NC1CN(c2ncnc3cc(Cl)c(-c4ccccc4Cl)cc23)C1 [Compound I-29, N-(1-(7-chloro-6-(2-chlorophenyl)quinazolin-4-yl)azetidin-3-yl)acrylamide] | + (+indicates binding activity from 5% to 25%)
C=CC(=O)N1CCN(c2ncnc3cc(Cl)c(-c4cc(Cl)ccc4O)cc23)CC1 [Compound I-10, 1-(4-(7-chloro-6-(5-chloro-2-hydroxyphenyl)quinazolin-4-yl)piperazin-1-yl)prop-2-en-1-one] | ++ (++indicates binding activity greater than 25% and up to 50%)
C=CC(=O)N1CCN(c2ncnc3cc(Cl)c(-c4ccccc4Cl)cc23)CC1 [Compound I-1, 1-(4-(7-chloro-6-(2-chlorophenyl)quinazolin-4-yl)piperazin-1-yl)prop-2-en-1-one] | +++ (+++indicates binding activity greater than 50% and up to 75%)

Same assay, conditions: compounds 48-246, measured at 2 h

SMILES | Binding %
C=CC(=O)N1CCN(c2ncnc3cc(-c4cccc5ncoc45)c(Cl)cc23)CC1 [Compound I-129, 1-(4-(7-(benzo[d]oxazol-7-yl)-6-chloroquinazolin-4-yl)piperazin-1-yl)prop-2-en-1-one] | + (+indicates binding activity from 5% to 25%)
C=CC(=O)N1CCN(c2ncnc3cc(-c4ccccc4C(F)(F)F)c(C(F)(F)F)cc23)CC1 [Compound I-212, 1-(4-(6-(trifluoromethyl)-7-(2-(trifluoromethyl)phenyl)quinazolin-4-yl)piperazin-1-yl)prop-2-en-1-one] | ++++ (++++indicates binding activity greater than 75%)
CN(C)C/C=C/C(=O)N1CCN(c2ncnc3cc(-c4ccccc4F)c(Cl)cc23)CC1 [Compound I-228, (E)0-1-(4-(6-chloro-7-(2-fluorophenyl)quinazolin-4-yl)piperazin-1-yl)-4-(dimethylamino)but-2-en-1-one] | + (+indicates binding activity from 5% to 25%)
C=CC(=O)N1CCN(c2ncnc3cc(Cl)c(-c4ccc(Cl)cc4)cc23)C[C@@H]1C(N)=O [Compound I-64, (R)-1-acryloyl-4-(7-chloro-6-(4-chlorophenyl)quinazolin-4-yl)piperazine-2-carboxamide] | ++ (++indicates binding activity greater than 25% and up to 50%)
C=CC(=O)N1CCN(c2ncnc3cc(-c4ccc(Cl)cc4F)c(Cl)cc23)CC1 [Compound I-114, 1-(4-(6-chloro-7-(4-chloro-2-fluorophenyl)quinazolin-4-yl)piperazin-1-yl)prop-2-en-1-one] | +++ (+++indicates binding activity greater than 50% and up to 75%)
C=CC(=O)N1CCN(c2ncnc3cc(-c4ccc(Cl)cc4O)c(Cl)cc23)CC1 [Compound I-117, 1-(4-(6-chloro-7-(4-chloro-2-hydroxyphenyl)quinazolin-4-yl)piperazin-1-yl)prop-2-en-1-one] | +++ (+++indicates binding activity greater than 50% and up to 75%)
C=CC(=O)N1CCN(c2ncnc3cc(-c4cc(F)ccc4O)c(Cl)cc23)CC1 [Compound I-122, 1-(4-(6-chloro-7-(5-fluoro-2-hydroxyphenyl)quinazolin-4-yl)piperazin-1-yl)prop-2-en-1-one] | ++ (++indicates binding activity greater than 25% and up to 50%)
C=CC(=O)N1CCN(c2ncnc3cc(Cl)ccc23)CC1C#N (stereo not drawn) [Compound I-48, 1-acryloyl-4-(7-chloroquinazolin-4-yl)piperazine-2-carbonitrile] | ++++ (++++indicates binding activity greater than 75%)
CN(C)C/C=C/C(=O)N1CCN(c2ncnc3cc(-c4ccccc4)c(Cl)cc23)CC1 [Compound I-82, (E)-1-(4-(6-chloro-7-phenylquinazolin-4-yl)piperazin-1-yl)-4-(dimethylamino)but-2-en-1-one] | + (+indicates binding activity from 5% to 25%)
C=CC(=O)N1CCN(c2ncnc3c(F)c(-c4ccccc4C(N)=O)c(Cl)cc23)CC1 [Compound I-236, 2-(4-(4-acryloylpiperazin-1-yl)-6-chloro-8-fluoroquinazolin-7-yl)benzamide] | +++ (+++indicates binding activity greater than 50% and up to 75%)

Same assay, conditions: compounds 247-342, measured at 30 min

SMILES | Binding %
C=CC(=O)N1CCN(c2ncnc3c(F)c(-c4ccc(F)cc4F)c(F)cc23)CC1 [Compound 296] | + (+indicates binding activity from 5% to 25%)
C=CC(=O)N1CCN(c2ncnc3cc(-c4c(O)cccc4F)c(Cl)c(C(F)(F)F)c23)CC1 [Compound 318, 1-(4-(6-chloro-7-(2-fluoro-6-hydroxyphenyl)-5-(trifluoromethyl)quinazolin-4-yl)piperazin-1-yl)prop-2-en-1-one] | + (+indicates binding activity from 5% to 25%)
C=CC(=O)N1CCN(c2ncnc3c(OC)c(-c4ccc(F)cc4F)c(Cl)cc23)CC1 [Compound 306, 1-(4-(6-chloro-7-(2,4-difluorophenyl)-8-methoxyquinazolin-4-yl)piperazin-1-yl)prop-2-en-1-one] | ++ (++indicates binding activity greater than 25% and up to 50%)

Same assay, conditions: determined at 24 hrs

SMILES | Binding %
C=CC(=O)N1CC(N2CCN(C(=O)CCc3cc(Cl)c(Cl)cc3O)CC2)C1 [II-6, 1-(3-(4-(3-(4,5-dichloro-2-hydroxyphenyl)-propanoyl)piperazin-1-yl)azetidin-1-yl)prop-2-en-1-one] | + (+indicates binding activity from 5% to 15%)
C=CC(=O)N1CC(N2CCN(C(=O)CNc3cc(Br)c(Cl)cc3O)CC2)C1 [II-18, 1-(3-(4-(2-(5-bromo-4-chloro-2-hydroxyphenyl-amino)acetyl)piperazin-1-yl)azetidin-1-yl)prop-2-en-1-one] | ++++ (++++indicates binding activity greater than 50%)
C=CC(=O)N1CC(N2CCN(C(=O)c3cc(C4CC4)c(Cl)cc3OC)CC2)C1 [II-47, 1-(3-(4-(4-chloro-5-cyclopropyl-2-methoxybenzoyl)-piperazin-1-yl)azetidin-1-yl)prop-2-en-1-one] | + (+indicates binding activity from 5% to 15%)
C=CC(=O)N1CC(N2CCN(C(=O)CNc3cc(C#N)c(Cl)cc3Cl)CC2)C1 [II-9, 5-(2-(4-(1-acryloylazetidin-3-yl)piperazin-1-yl)-2-oxoethylamino)-2,4-dichlorobenzonitrile] | + (+indicates binding activity from 5% to 15%)
C=CC(=O)N1CC(N2CCN(C(=O)c3cc(-c4cc(Cl)ccc4Cl)c(Cl)cc3O)CC2)C1 [II-48, 1-(3-(4-(2′,5′,6-trichloro-4-hydroxybiphenyl-carbonyl)piperazin-1-yl)azetidin-1-yl)prop-2-en-1-one] | ++ (++indicates binding activity greater than 15% and up to 25%)
